Experimental data from the NIST ThermoML archive (doi:10.1021/acs.jced.8b00595).

Conditions: 101.3 kPa, Liquid; for viscosity: Concentric cylinders viscometry; for mass density: Vibrating tube method

COC(C)(C)C [2-methoxy-2-methylpropane]
Conditions	mass density [kg/m3]	viscosity [mPa·s]
273.15 K	761.3	0.495
288.15 K	745.9	0.421
298.15 K	735	0.381
308.15 K	724.6	0.328
